Assay results reported in ChEMBL document CHEMBL4808246 (Bioorg Med Chem, 2021).

Key:
[1] = Solubility of the compound in water; type: physicochemical; settings: buffer
[2] = target: T1, Prostaglandin G/H synthase 1 (Ovis aries) (UniProt P05979); assay: Inhibition of ovine COX-1 assessed as production of PGE2 using arachidonic acid as a substrate preincubated for 60 mins at 10 uM followed by substrate addition and measured after 2 mins by ELISA analysis relative to control
T1 sequence (whole entry): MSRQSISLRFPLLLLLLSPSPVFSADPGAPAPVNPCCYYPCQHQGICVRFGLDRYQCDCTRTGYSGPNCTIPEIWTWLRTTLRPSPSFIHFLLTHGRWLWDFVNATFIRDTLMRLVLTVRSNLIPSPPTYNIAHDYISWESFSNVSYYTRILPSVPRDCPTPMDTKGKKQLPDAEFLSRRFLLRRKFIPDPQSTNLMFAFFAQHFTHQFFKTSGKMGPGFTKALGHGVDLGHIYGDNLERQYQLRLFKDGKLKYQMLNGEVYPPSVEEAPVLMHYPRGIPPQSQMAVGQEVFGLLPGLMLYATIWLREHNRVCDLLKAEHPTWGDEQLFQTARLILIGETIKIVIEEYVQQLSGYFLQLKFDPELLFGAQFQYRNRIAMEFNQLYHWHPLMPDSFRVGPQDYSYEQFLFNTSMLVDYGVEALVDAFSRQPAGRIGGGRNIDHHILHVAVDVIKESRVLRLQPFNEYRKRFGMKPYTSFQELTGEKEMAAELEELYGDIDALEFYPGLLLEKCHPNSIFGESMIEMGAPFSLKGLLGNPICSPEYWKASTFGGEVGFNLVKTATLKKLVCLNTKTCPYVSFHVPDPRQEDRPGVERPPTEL

Mus musculus [3] = assay: Antiinflammatory activity in mouse xylene induced ear edema model assessed as inhibition of auricular edemas at 30 mg/kg, po once daily administered for 3 days prior to xylene stimulation and measured after 30 mins relative to control; type: functional; settings: 72 h, time 3 day
[4] = target: T1, Prostaglandin G/H synthase 1 (Ovis aries); assay: Inhibition of ovine COX-1 assessed as production of PGE2 using arachidonic acid as a substrate preincubated for 60 mins at 0.1 uM followed by substrate addition and measured after 2 mins by ELISA analysis relative to control
Mus musculus [5] = assay: Analgesic activity in mouse model of acetic-acid induced writhing assessed as inhibition of writhing at 30 mg/kg, po once daily administered for 3 days prior to acetic acid injection measured after 20 mins relative to control; type: functional; settings: 72 h, time 3 day
[6] = target: T1, Prostaglandin G/H synthase 1 (Ovis aries); assay: Inhibition of ovine COX-1 assessed as production of PGE2 using arachidonic acid as a substrate preincubated for 60 mins at 100 uM followed by substrate addition and measured after 2 mins by ELISA analysis relative to control; settings: time 62.0 min
[7] = target: T2, Prostaglandin G/H synthase 2 (Homo sapiens, UniProt P35354); assay: Inhibition of human recombinant COX-2 assessed as production of PGE2 using arachidonic acid as a substrate preincubated for 60 mins followed by substrate addition and measured after 2 mins by ELISA analysis
T2 sequence (P35354 whole entry): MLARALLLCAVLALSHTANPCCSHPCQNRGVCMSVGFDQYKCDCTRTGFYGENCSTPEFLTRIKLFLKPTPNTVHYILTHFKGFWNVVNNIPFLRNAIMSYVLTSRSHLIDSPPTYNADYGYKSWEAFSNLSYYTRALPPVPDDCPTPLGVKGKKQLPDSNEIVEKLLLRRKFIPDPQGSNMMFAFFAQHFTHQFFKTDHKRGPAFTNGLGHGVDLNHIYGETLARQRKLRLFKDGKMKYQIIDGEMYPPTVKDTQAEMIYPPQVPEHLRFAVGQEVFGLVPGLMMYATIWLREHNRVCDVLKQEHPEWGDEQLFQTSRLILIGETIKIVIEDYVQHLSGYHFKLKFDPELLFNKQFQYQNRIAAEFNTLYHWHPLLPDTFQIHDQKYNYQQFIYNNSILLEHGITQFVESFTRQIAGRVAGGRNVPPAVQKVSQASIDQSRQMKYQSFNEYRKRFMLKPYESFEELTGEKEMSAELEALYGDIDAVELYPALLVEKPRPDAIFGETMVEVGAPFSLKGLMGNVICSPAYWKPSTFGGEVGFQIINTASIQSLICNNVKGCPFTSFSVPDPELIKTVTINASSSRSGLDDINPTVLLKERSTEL

Mus musculus [8] = assay: Analgesic activity in mouse model of acetic-acid induced writhing assessed as number of writhes at 30 mg/kg, po once daily administered for 3 days prior to acetic acid injection measured after 20 mins (reference value: 29.13+/-9.36); type: functional; settings: time 3 day
[9] = target: T1, Prostaglandin G/H synthase 1 (Ovis aries); assay: Inhibition of ovine COX-1 assessed as production of PGE2 using arachidonic acid as a substrate preincubated for 60 mins at 1 uM followed by substrate addition and measured after 2 mins by ELISA analysis relative to control
Mus musculus [10] = assay: Antiinflammatory activity in mouse xylene induced ear edema model assessed as ear weight difference at 30 mg/kg, po once daily administered for 3 days prior to xylene stimulation and measured after 30 mins (reference value: 13.64 =/- 2.55 mg); type: functional; settings: time 3 day
[11] = target: T3, Prostaglandin G/H synthase 1 (Ovis aries, UniProt P05979); assay: Inhibition of ovine COX-1 assessed as production of PGE2 using arachidonic acid as a substrate preincubated for 60 mins followed by substrate addition and measured after 2 mins by ELISA analysis
T3 sequence (P05979 whole entry): T1 sequence (whole entry)

[12] = Selectivity index, ratio of IC50 for ovine COX-1 to IC50 for human COX-2

solubility [1] | inhibition [2] | inhibition [4] | inhibition [6] | IC50 [7] | inhibition [9] | IC50 [11] | Ratio [12] | SMILES | inhibition in vivo at 30 mg/kg (Mus musculus [3]) | inhibition in vivo at 30 mg/kg (Mus musculus [5]) | Activity (Mus musculus [8]) | Activity (Mus musculus [10])
Insoluble | 29% | 25% | 29% | 100 nM | 39% |  |  | Cc1cc(-c2ccccn2)nn1S(=O)(=O)Oc1ccccc1 | 11.3% | 15% | 24.75 | 12.1 mg
Insoluble |  |  |  |  |  |  |  | CC(COCCOCCOCCOCCOCCOCCOCCOCCOCCOCCOCCOCCOCCOCCOCCOCCOCCOCCOCCOCCOCCOCCOCCOCCOCCOCCOCCOCCOCCOCCOCCOCCOCCOCCOCCOCCOCCOCCO)OCC(C)OCC(C)OCC(C)OCC(C)OCC(C)OCC(C)OCC(C)OCC(C)OCC(C)OCC(C)OCC(C)OCC(C)OCC(C)OCC(C)OCC(C)OCC(C)OCC(C)OCC(C)OCC(C)OCC(C)OCC(C)OCC(C)OCC(C)OCC(C)OCC(C)OCC(C)OCC(C)OCC(C)OCC(C)OCCOCCOCCOCCOCCOCCOCCOCCOCCOCCOCCOCCOCCOCCOCCOCCOCCOCCOCCOCCOCCOCCOCCOCCOCCOCCOCCOCCOCCOCCOCCOCCOCCOCCOCCOCCOCCOCCO (stereo not drawn) | 0% | 0% | 29.13 | 13.64 mg
Insoluble |  | 47% |  | 31 nM |  |  |  | Cc1cc(-c2ccco2)nn1S(=O)(=O)Oc1ccccc1 | 12.5% | 42.5% | 16.75 | 11.93 mg
 | 55% | 65% | 42% | 11100 nM | 63% |  |  | Cc1ccccc1-c1cc(C)n(S(=O)(=O)Oc2ccccc2)n1 |  |  |  | 
 | 29% | 19% | 30% |  | 21% | > 100000 nM |  | COc1ccc(-c2cc(C)n(S(=O)(=O)Oc3ccccc3)n2)cc1 |  |  |  | 
 | 13% | 4% | 27% |  | 7% |  |  | Cc1cc(-c2ccc3ccccc3c2)nn1S(=O)(=O)Oc1ccccc1 |  |  |  | 
Insoluble | 44% | 27% | 68% | < 10 nM | 36% | 9380 nM | > 938 | O=S(=O)(Oc1ccccc1)n1nc(-c2ccccc2)cc1-c1ccccc1 | 25.7% | 39.1% | 17.75 | 10.13 mg
 | 33% | 18% | 38% |  | 24% | > 100000 nM |  | Cc1cc(-c2cccs2)nn1S(=O)(=O)Oc1ccccc1 |  |  |  | 
Insoluble | 5% | 8% | 14% | 110 nM | 17% |  |  | Cc1cc(-c2cccc(Cl)c2)nn1S(=O)(=O)Oc1ccccc1 | 10% | 18.9% | 23.63 | 8.18 mg
 | 20% | 16% | 43% |  | 18% | > 100000 nM |  | Cc1cc(-c2ccc(Cl)cc2)nn1S(=O)(=O)Oc1ccccc1 |  |  |  | 
 | 71% | 45% | 70% | 200 nM | 68% | 140 nM | 1 | Cc1cc(-c2ccc(Br)cc2)nn1S(=O)(=O)Oc1ccccc1 |  |  |  | 
 | 47% | 20% | 21% |  | 39% | 18100 nM |  | Cc1ccc(-c2cc(C(C)C)n(S(=O)(=O)Oc3ccccc3)n2)cc1 |  |  |  | 
 | 80% | 51% | 83% | 5.8 nM | 56% | 90 nM | 16 | Cc1cc(-c2ccccn2)nn1S(=O)(=O)Oc1ccc(Cl)cc1 |  |  |  | 
Insoluble |  | 11% |  |  | -1% |  |  | CCc1ccc(-c2cc(C)n(S(=O)(=O)Oc3ccccc3)n2)cc1 | 21.1% | 48.1% | 15.13 | 10.76 mg
 | 14% | 4% | 19% | 92 nM | 9% | > 100000 nM | > 1090 | Cc1ccc(-c2cc(C)n(S(=O)(=O)Oc3ccccc3I)n2)cc1 |  |  |  | 
 |  |  |  | > 100000 nM |  |  |  | Cc1cc(-c2ccccc2)nn1S(=O)(=O)Oc1ccccc1C(F)(F)F |  |  |  | 
 | 55% | 61% | 60% |  | 55% |  |  | Cc1cc(-c2ccccc2Cl)nn1S(=O)(=O)Oc1ccccc1 |  |  |  | 
 | 43% | 36% | 61% |  | 40% |  |  | Cc1cc(-c2ccncc2)nn1S(=O)(=O)Oc1ccccc1 |  |  |  | 
Insoluble | 33% |  | 53% |  |  | 72300 nM |  | Cc1cccc(-c2cc(C)n(S(=O)(=O)Oc3ccccc3)n2)c1 | 8.7% | 43.8% | 16.38 | 12.46 mg
 | 24% | 19% | 34% |  | 23% |  |  | Cc1cc(-c2cccnc2)nn1S(=O)(=O)Oc1ccccc1 |  |  |  | 
 | 31% | 18% | 30% |  | 30% | > 100000 nM |  | Cc1ccc(-c2cc(C)n(S(=O)(=O)Oc3ccc(C)c(C)c3)n2)cc1 |  |  |  | 
 |  |  | -2% | > 10000 nM |  |  |  | Cc1cc(-c2ccc(F)cc2)nn1S(=O)(=O)Oc1ccccc1 |  |  |  | 
 | 1% | 10% | 6% |  | -3% |  |  | Cc1ccc(-c2cc(-c3ccccc3)n(S(=O)(=O)Oc3ccccc3)n2)cc1 |  |  |  | 
Insoluble | 18% | 33% | 22% | < 10 nM | 32% |  |  | Cc1cc(-c2ccc(C(F)(F)F)cc2)nn1S(=O)(=O)Oc1ccccc1 | 35.9% | 25.8% | 21.63 | 8.75 mg
